Common to all, as to test: relative viability (nuclei count vs DMSO), 5 days (fraction); higher = more cells survive
Compound in the test “XMD8-85 + Trametinib”: CN1CCN(CC1)C2=CC(=C(C=C2)NC3=NC=C4C(=N3)N(C5=CC=CC=C5C(=O)N4C)C)OC [XMD8-85] + CC(=O)Nc1cccc(-n2c(=O)n(C3CC3)c(=O)c3c(Nc4ccc(I)cc4F)n(C)c(=O)c(C)c32)c1 [Trametinib] (partner 0.02 µM)
In short, it runs like this:
(§1)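 The day after seeding in 1536-well plates, lung cancer cell lines were treated by pin tool with a single drug, or with a fixed anchor-drug dose together with five library-drug doses (not always all listed) in √10 steps. After 5 days, a combined fix-and-stain solution (final 0.05% Triton X-100, 1% formaldehyde, 1 ug/ml Hoechst) was added. Nuclei counted on 4× images gave relative viability as treated counts over vehicle counts, reported as the median of duplicate plates.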

Compound in the test “XMD8-85 + Navitoclax”: CN1CCN(CC1)C2=CC(=C(C=C2)NC3=NC=C4C(=N3)N(C5=CC=CC=C5C(=O)N4C)C)OC [XMD8-85] + CC1(C)CCC(c2ccc(Cl)cc2)=C(CN2CCN(c3ccc(C(=O)NS(=O)(=O)c4ccc(N[C@H](CCN5CCOCC5)CSc5ccccc5)c(S(=O)(=O)C(F)(F)F)c4)cc3)CC2)C1 [Navitoclax] (partner 0.5 µM)
In short, it runs like this:
as §1

Compound in the test “4EGI-1 + Palbociclib”: O=C(O)C(Cc1ccccc1[N+](=O)[O-])=NNc1nc(-c2ccc(Cl)c(Cl)c2)cs1 (mixture of isomers) [4EGI-1] + CC(=O)c1c(C)c2cnc(Nc3ccc(N4CCNCC4)cn3)nc2n(C2CCCC2)c1=O [Palbociclib] (partner 0.5 µM)
In short, it runs like this: as §1

Compound in the test “4EGI-1 + Dasatinib”: O=C(O)C(Cc1ccccc1[N+](=O)[O-])=NNc1nc(-c2ccc(Cl)c(Cl)c2)cs1 (mixture of isomers) [4EGI-1] + Cc1nc(Nc2ncc(C(=O)Nc3c(C)cccc3Cl)s2)cc(N2CCN(CCO)CC2)n1 [Dasatinib] (partner 0.075 µM)
In short, it runs like this: as §1

As to NCI-H1792, the relative viability with XMD8-85 + Trametinib (first compound 0.253 µM) was 0.483; with XMD8-85 + Trametinib (first compound 0.8 µM), 0.308; with XMD8-85 + Trametinib (first compound 2.53 µM), 0.463; with XMD8-85 + Trametinib (first compound 8 µM), 0.271; with XMD8-85 + Navitoclax (first compound 0.08 µM), 0.488; with XMD8-85 + Navitoclax (first compound 0.253 µM) it was 0.398. The relative viability with XMD8-85 + Navitoclax (first compound 2.53 µM) came to 0.482; with XMD8-85 + Navitoclax (first compound 8 µM), 0.49; with 4EGI-1 + Palbociclib (first compound 0.5 µM), 0.75; with 4EGI-1 + Palbociclib (first compound 1.581 µM) it was 0.695; with 4EGI-1 + Palbociclib (first compound 5 µM) it was 0.723; with 4EGI-1 + Palbociclib (first compound 15.81 µM) it was 0.575. Further, the relative viability with 4EGI-1 + Palbociclib (first compound 50 µM) is 0.646; with 4EGI-1 + Dasatinib (first compound 0.5 µM), 1.03; in the test with 4EGI-1 + Dasatinib (first compound 1.581 µM), 0.797; with 4EGI-1 + Dasatinib (first compound 5 µM), 0.74; with 4EGI-1 + Dasatinib (first compound 15.81 µM), 0.712; with 4EGI-1 + Dasatinib (first compound 50 µM), 0.671.

These data come from the supplement of paper PMC10307832.
